Where two headings read alike, the source gives them in different places.
Legend:
[1] = tested on: GABAA Cl channel; test: GABAA Cl channel, TBOB site competitive binding (3H-TBOB), single concentration; conditions: Conc. 1.0E−4 M, bovine hippocampus
From the text: (§1) The binding profile of exemplary inventive compounds to neurotransmitter receptor sites is set forth below in Table 1. The characterization of the receptors, isolation of the membrane, and enzyme assay have been described in detail previously (see, e.g., Cole et al., Life Sci., 35, 1755 (1984), Lawrence et al., J. Neurochem., 45(3), 798 (1985), Sweetnam et al., Mol. Pharmacology, 29, 299 (1986), Zarkovsky et al., Neuropharmacology, 26 (7A), 737 (1987), Li et al., Eur. J. Pharmacology, 413, 63 (2001), and Markela et al., Mol. Pharmacology, 52, 380 (1997)).
(§2) The melatonin binding site on GABAA was defined using a series of competitive binding assays. Frozen bovine hippocampus was thawed and homogenized in 40 volumes of ice-cold 0.32 M sucrose. The suspension was centrifuged at 1000×g for 10 minutes at 4° C. The pellet was washed twice in assay buffer and reacted with radioactive ligand in presence or absence of melatonin at 10^−4 M final concentration. The amount of radioactivity remained on the Whatman filter following filtration of the reaction mix and two washes with assay buffer was determined using a liquid scintillation counter. Inhibition of radioactive ligand binding by melatonin represents the competitive binding of melatonin to the same site as the radioactive ligand. GABAA agonist site, GABAA α-1 site, GABAA α-5 site, GABAA α-6 site, and GABAA Cl channel were assayed using ^3H-GABA, ^3H-flunitrazepam, ^3H-RY80, ^3H-Ro 15-4513, and ^3H-TBOB.

[2] = tested on: GABAA α-6 site; test: GABAA alpha 6 site competitive binding (3H-Ro 15-4513); conditions: Conc. 1.0E−4 M, bovine hippocampus
From the text: as §1, §2

[3] = tested on: GABAA α-1 site; test: GABAA alpha 1 site competitive binding (3H-flunitrazepam); conditions: Conc. 1.0E−4 M, bovine hippocampus
From the text: as §1, §2

[4] = tested on: Dawley rats; test: Response to tail clamping after single i.v. bolus; type: in vivo; conditions: single i.v. bolus 15 mg/kg, in 10% ethanol/16% Cremophor
Experimental: This example illustrates the tail clamping with melatonin analogs. Dawley rats (Harlan, Indianapolis, Ind., USA) were weighed and anaesthetized with isoflurane. In all rats, the right jugular vein was cannulated with a heparinized saline filled catheter. Studies were carried out 5-7 days after surgery.
Tail clamp was tested by application of a rubber-clad vascular clamp (22 cm DeBakey) across the proximal third of the tail. Purposeful movement of the hind limbs and/or the head was noted as a positive response.

[5] = tested on: GABAA Cl channel; test: GABAA Cl channel, TBOB site competitive binding (3H-TBOB), single concentration; conditions: Conc. 1.0E−3 M, bovine hippocampus
[6] = tested on: GABAA α-1 site; test: GABAA alpha 1 site competitive binding (3H-flunitrazepam); conditions: Conc. 1.0E−3 M, bovine hippocampus
[7] = tested on: GABAA α-6 site; test: GABAA alpha 6 site competitive binding (3H-Ro 15-4513); conditions: Conc. 1.0E−3 M, bovine hippocampus
[8] = tested on: rats; conditions: cited from earlier work; for ED95 (95% CI, for loss of righting reflex): intravenous
[9] = tested on: GABAA agonist site; test: GABAA agonist site competitive binding (3H-GABA); conditions: bovine hippocampus
From the text: as §1, §2

[10] = target: GABAA Cl channel; test: GABAA Cl channel binding constant determination (3H-TBOB, increasing concentration, Hill plots); conditions: bovine hippocampus
Experimental: (§3) The suspension was centrifuged at 1000×g for 10 minutes at 4° C. The pellet was washed twice in assay buffer and reacted with radioactive ligand in presence or absence of […] at 10^−4 M final concentration. The amount of radioactivity remained on the Whatman filter following filtration of the reaction mix and two washes with assay buffer was determined using a liquid scintillation counter. Inhibition of radioactive ligand binding by melatonin represents the competitive binding of melatonin to the same site as the radioactive ligand. GABAA Cl channel were assayed using ^3H-TBOB. The binding was carried out in the presence of increasing concentration of melatonin and the KD determined graphically using the Hill plots. In vivo hypnotic activity was determined as follow. Drugs solubilized in DMSO were administered to rats by tail vein injection (N=5 rats per group). A dose level of 28 μmol/kg (5 mg/kg for propofol) was used to compensate for differences in molecular weight of the analogs. Anesthetic activity in vivo was determined as time to recovery of righting reflex following administration of the compounds.

[11] = tested on: rats; test: In vivo hypnotic activity: time to recovery of righting reflex after tail vein injection; conditions: 28 μmol/kg (5 mg/kg for propofol), in DMSO
Experimental: as §3

In the case of `COc1ccc2[nH]c(-c3ccc(C)cc3)c(CCNC(C)=O)c2c1` [2-(4-Methylphenyl) melatonin, N-(2-(5-methoxy-2-p-tolyl-1H-indol-3-yl)ethyl)acetamide], the “Specific binding, GABAA Ion Channels Cl−, TBOB site (inhibition of radioactive ligand binding)” value [1] is reported as 101.46%, the “Specific binding, GABAA Alpha 6 site (inhibition of radioactive ligand binding)” value [2] is reported as 32.93% and the “Specific binding, GABAA Alpha 1 site (inhibition of radioactive ligand binding)” value [3] is reported as 10.28%.
For `COc1ccc2[nH]c(-c3ccc(C(C)(C)C)cc3)c(CCNC(C)=O)c2c1` [drawing 29], the “# lack of response rat/tested rat” value [4] was 5/5 and the “Time of lack of response to the tail clamp” value [4] was 5 min.
In the case of `COc1ccc2[nH]cc(CCNC(C)=O)c2c1` [Melatonin, N-acetyl-5-methoxytryptamine], the “Specific binding, GABAA Ion Channels Cl−, TBOB site (inhibition of radioactive ligand binding)” value [5] is reported as 39.44%, the “Specific binding, GABAA Alpha 1 site (inhibition of radioactive ligand binding)” value [6] is reported as 39.80% and the “Specific binding, GABAA Alpha 6 site (inhibition of radioactive ligand binding)” value [7] is reported as 17.50%. For the same molecule, the “Effect of bolus injection on righting reflex” value ([8]; bolus injection of 312 mg/mL) was “immediate loss of righting reflex” and the “Specific binding, GABAA Agonist site (inhibition of radioactive ligand binding)” value ([9]; Conc. 1.0E−3 M) was −3.11%.
For `COc1ccc2[nH]c(Br)c(CCNC(C)=O)c2c1` [2-Bromomelatonin, N-(2-(2-bromo-5-methoxy-1H-indol-3-yl)ethyl)acetamide], the “Specific binding, GABAA Ion Channels Cl−, TBOB site (inhibition of radioactive ligand binding)” value [5] was 51.87%, the “Specific binding, GABAA Alpha 1 site (inhibition of radioactive ligand binding)” value [6] was 8.35% and the “Specific binding, GABAA Alpha 6 site (inhibition of radioactive ligand binding)” value [7] was −12.69%. The “Specific binding, GABAA Agonist site (inhibition of radioactive ligand binding)” value ([9]; Conc. 1.0E−3 M) was −8.55%.
For `COc1ccc2[nH]c(-c3ccccc3)c(CCNC(C)=O)c2c1` [drawing 18], the IC50 [10] was 108 µM.
For `COc1ccc2[nH]c(-c3ccc(C)cc3)c(CCNC(C)=O)c2c1` [drawing 21], the IC50 [10] was 33.9 µM and the “Anesthesia Activity (Time to awakening, min)” value (from here on “Anesthesia Activity”) [11] was 4.8 min.
For `COc1ccc2[nH]c(-c3cccc(C(F)(F)F)c3)c(CCNC(C)=O)c2c1` [drawing 28], the “# lack of response rat/tested rat” value [4] was 5/5 and the “Time of lack of response to the tail clamp” value [4] was 5 min.
In the case of `COc1ccc2[nH]c(-c3ccc(F)cc3)c(CCNC(C)=O)c2c1` [2-(4-Fluorophenyl) melatonin, N-(2-(2-(4-fluorophenyl)-5-methoxy-1H-indol-3-yl)ethyl)acetamide], the “Specific binding, GABAA Ion Channels Cl−, TBOB site (inhibition of radioactive ligand binding)” value [1] is reported as 110.10%, the “Specific binding, GABAA Alpha 6 site (inhibition of radioactive ligand binding)” value [2] is reported as 20.76% and the “Specific binding, GABAA Alpha 1 site (inhibition of radioactive ligand binding)” value [3] is reported as 28.80%.
With `COc1ccc2[nH]c(-c3ccc(C(F)(F)F)cc3)c(CCNC(C)=O)c2c1` [drawing 20] the IC50 [10] was 13.1 µM and the “Anesthesia Activity” value [11] was 20.8 min.
With `CC(C)c1cccc(C(C)C)c1O` [drawing 16, reference compound] the IC50 [10] was 4.86 µM and the “Anesthesia Activity” value [11] was 20.8 min.
In the case of `COc1ccc2[nH]c(-c3ccccc3)c(CCNC(C)=O)c2c1` [2-Phenylmelatonin, N-(2-(5-methoxy-2-phenyl-1H-indol-3-yl)ethyl)acetamide], the “Specific binding, GABAA Ion Channels Cl−, TBOB site (inhibition of radioactive ligand binding)” value [1] is reported as 84.28%, the “Specific binding, GABAA Agonist site (inhibition of radioactive ligand binding)” value ([9]; Conc. 1.0E−4 M) is reported as 0.33% and the “Specific binding, GABAA Alpha 6 site (inhibition of radioactive ligand binding)” value [2] is reported as 12.48%. The “Specific binding, GABAA Alpha 1 site (inhibition of radioactive ligand binding)” value [3] was 35.16%.
For `COc1ccc2[nH]c(-c3cccc(C(F)(F)F)c3)c(CCNC(C)=O)c2c1` [2-(3-Trifluoromethylphenyl) melatonin, N-(2-(2-(3-trifluoromethylphenyl)-5-methoxy-1H-indol-3-yl)ethyl)acetamide], the “Specific binding, GABAA Ion Channels Cl−, TBOB site (inhibition of radioactive ligand binding)” value [1] was 79.60%, the “Specific binding, GABAA Alpha 6 site (inhibition of radioactive ligand binding)” value [2] was 25.39% and the “Specific binding, GABAA Alpha 1 site (inhibition of radioactive ligand binding)” value [3] was 15.61%.
With `COc1ccc2[nH]c(-c3ccccc3)c(CCNC(C)=O)c2c1` [drawing 25, reference compound] the “# lack of response rat/tested rat” value [4] was 0/5 and the “Time of lack of response to the tail clamp, min” value [4] was “No effect”.
For `COc1ccc2[nH]c(-c3cccc(C(F)(F)F)c3)c(CCNC(C)=O)c2c1` [drawing 22], the “Anesthesia Activity” value [11] was 3.8 min.
With `COc1ccc2[nH]c(-c3ccc(C(F)(F)F)cc3)c(CCNC(C)=O)c2c1` [2-(4-Trifluoromethylphenyl) melatonin, N-(2-(2-(4-trifluoromethylphenyl)-5-methoxy-1H-indol-3-yl)ethyl)acetamide] the “Specific binding, GABAA Ion Channels Cl−, TBOB site (inhibition of radioactive ligand binding)” value [1] was 103.23%, the “Specific binding, GABAA Alpha 6 site (inhibition of radioactive ligand binding)” value [2] was 25.87% and the “Specific binding, GABAA Alpha 1 site (inhibition of radioactive ligand binding)” value [3] was 8.11%.
For `CC(C)c1cccc(C(C)C)c1O` [2,6-Diisopropylphenol, reference compound], the “Specific binding, GABAA Ion Channels Cl−, TBOB site (inhibition of radioactive ligand binding)” value [1] is listed as 117.52%, the “Effect of bolus injection on righting reflex” value ([8]; bolus injection of 10 mg/kg) is listed as “immediate loss of righting reflex” and the “ED95 (95% CI, for loss of righting reflex)” value [8] is listed as 14.9 mg/kg. For the same molecule, the “Specific binding, GABAA Agonist site (inhibition of radioactive ligand binding)” value ([9]; Conc. 1.0E−4 M) was 12.48%, the “Specific binding, GABAA Alpha 6 site (inhibition of radioactive ligand binding)” value [2] was −0.89% and the “Specific binding, GABAA Alpha 1 site (inhibition of radioactive ligand binding)” value [3] was −14.31%.
With `COc1ccc2[nH]c(-c3ccc(F)cc3)c(CCNC(C)=O)c2c1` [drawing 19] the IC50 [10] was 27.9 µM and the “Anesthesia Activity” value [11] was 3.0 min.
In the case of `COc1ccc2[nH]c(-c3ccc(F)cc3)c(CCNC(C)=O)c2c1` [drawing 26], the “# lack of response rat/tested rat” value [4] is reported as 5/5 and the “Time of lack of response to the tail clamp” value [4] is reported as 2 min.
In the case of `COc1ccc2[nH]c(-c3ccc(C(F)(F)F)cc3)c(CCNC(C)=O)c2c1` [drawing 27], the “# lack of response rat/tested rat” value [4] is reported as 4/5 and the “Time of lack of response to the tail clamp” value [4] is reported as 15 min.
With `COc1ccc(-c2[nH]c3ccc(OC)cc3c2CCNC(C)=O)cc1` [drawing 23] the IC50 [10] was 19.9 µM and the “Anesthesia Activity” value [11] was 3.5 min.
In the case of `COc1ccc2[nH]c(-c3ccc(C(C)(C)C)cc3)c(CCNC(C)=O)c2c1` [drawing 24], the “Anesthesia Activity” value [11] is reported as 20.3 min.
In the case of `CC(=O)NCCc1c(Cc2ccccc2)[nH]c2ccccc12` [Luzindole, reference compound], the “Specific binding, GABAA Ion Channels Cl−, TBOB site (inhibition of radioactive ligand binding)” value [1] is reported as 47.55%, the “Specific binding, GABAA Agonist site (inhibition of radioactive ligand binding)” value ([9]; Conc. 1.0E−4 M) is reported as 5.84% and the “Specific binding, GABAA Alpha 6 site (inhibition of radioactive ligand binding)” value [2] is reported as 4.93%. For the same molecule, the “Specific binding, GABAA Alpha 1 site (inhibition of radioactive ligand binding)” value [3] was 5.09%.
In the case of `CCCC(C)C1(CC)C(=O)NC(=S)NC1=O` (centres unmarked) [thiopental], the “ED95 (95% CI, for loss of righting reflex)” value [8] is given as 8 mg/kg.
